Molecules are shown by their SMILES. Where two headings read alike, the source gives them in different places.

As usually defined, the Ki is the equilibrium dissociation constant of an inhibitor or competing ligand from its target.

The target of this assay is T1, Rhesus PDE2A3 (Macaca mulatta, UniProt B3VTJ2).
T1 construct: made in house; host or cells: AD293 cells, transient transfection; supernatant of sonicated lysate
T1 sequence (B3VTJ2 1-941): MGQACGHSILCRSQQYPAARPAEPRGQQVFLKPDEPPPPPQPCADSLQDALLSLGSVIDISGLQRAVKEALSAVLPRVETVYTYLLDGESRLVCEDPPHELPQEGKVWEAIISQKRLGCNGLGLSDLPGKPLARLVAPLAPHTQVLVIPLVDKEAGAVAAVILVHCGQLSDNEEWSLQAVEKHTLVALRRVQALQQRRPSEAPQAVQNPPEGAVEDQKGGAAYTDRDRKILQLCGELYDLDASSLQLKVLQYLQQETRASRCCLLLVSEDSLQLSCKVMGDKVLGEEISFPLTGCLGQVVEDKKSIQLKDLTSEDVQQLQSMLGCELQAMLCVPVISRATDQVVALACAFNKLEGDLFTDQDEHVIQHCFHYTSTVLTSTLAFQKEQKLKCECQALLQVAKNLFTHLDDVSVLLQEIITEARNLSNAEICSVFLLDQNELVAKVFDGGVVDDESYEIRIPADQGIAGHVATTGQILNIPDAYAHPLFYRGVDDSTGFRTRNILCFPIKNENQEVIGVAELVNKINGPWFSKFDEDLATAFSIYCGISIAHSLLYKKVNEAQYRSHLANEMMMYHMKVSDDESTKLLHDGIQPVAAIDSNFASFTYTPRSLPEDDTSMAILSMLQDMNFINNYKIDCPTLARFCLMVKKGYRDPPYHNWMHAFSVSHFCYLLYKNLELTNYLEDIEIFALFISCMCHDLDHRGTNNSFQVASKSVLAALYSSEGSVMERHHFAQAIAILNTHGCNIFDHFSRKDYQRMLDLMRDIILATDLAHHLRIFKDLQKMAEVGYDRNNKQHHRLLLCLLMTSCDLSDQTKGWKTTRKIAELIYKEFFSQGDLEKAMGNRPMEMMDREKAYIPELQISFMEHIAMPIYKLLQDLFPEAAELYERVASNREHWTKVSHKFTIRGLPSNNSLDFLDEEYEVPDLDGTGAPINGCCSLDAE
Briefly: PDE2 fluorescence polarization (IMAP FP) inhibition assay, rhesus PDE2A3. The class given is biochemical, rhesus macaque. The method, boiled down:
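Enzyme source was the lysate supernatant of AD293 cells transiently expressing rhesus PDE2A3, diluted to give 20% conversion of 50 nM FAM-cAMP, with 1 µM cGMP as activator. Buffer was 10 mM Tris pH 7.2, 10 mM MgCl2, 1 mM DTT.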
A general note: Polarisation of emitted light reports the rotation of a fluorescent probe.

Where [1] appears, read: Lab B, read-out: Rhesus PDE2 Ki (nM) Lab B.
[2] abbreviates: Lab A, read-out: Rhesus PDE2 Ki (nM) Lab A.

In the case of `Cc1nc2c(c(CO)nn2C(c2ccc(C(F)(F)F)c(F)c2)C(C)(C)C)c(=O)[nH]1` (single isomer, unassigned) [Example 129, (S)- or (R)-1-(1-(3-Fluoro-4-(trifluoromethyl)phenyl)-2,2-dimethylpropyl)-3-(hydroxyl-methyl)-6-methyl-1H-pyrazolo-[3,4-d]pyrimidin-4(5H)-one], the Ki under setting [1] was determined as 6.9 nM. As to `Cc1nc2c(c(C(F)F)nn2C(c2ccc(OC(F)(F)F)c(F)c2)C2CC2)c(=O)[nH]1` (stereo not shown) [Example 193, 1-(Cyclopropyl(3-fluoro-4-(trifluoromethoxy)phenyl)methyl)-3-(difluoromethyl)-6-methyl-1H-pyrazolo[3,4-d]pyrimidin-4(5H)-one], the inhibition constant Ki under setting [1] came to 1.2 nM. With `Cc1ccc(C(C)n2nc(CO)c3c(=O)[nH]c(C)nc32)cc1` (stereo not shown) [Example 2, 3-(Hydroxymethyl)-6-methyl-1-(1-p-tolylethyl)-1H-pyrazolo[3,4-d]pyrimidin-4(5H)-one], the Ki came out at 26 nM under setting [2] and 30 nM under setting [1]. Take `Cc1nc2c(c(CO)nn2C(C)c2ccc(C(F)(F)F)c(F)c2)c(=O)[nH]1` (single isomer, unassigned) [Example 13, (S)- or (R)-1-(1-(3-Fluoro-4-(trifluoromethyl)phenyl)ethyl)-3-(hydroxymethyl)-6-methyl-1H-pyrazolo[3,4-d]pyrimidin-4(5H)-one]: the inhibition constant Ki under setting [2] is 1.3 nM and the Ki under setting [1] worked out at 3 nM. Turning to `Cc1nn(C(C)c2ccc(C(F)(F)F)cc2)c2nc(Cc3cccc(O)c3)[nH]c(=O)c12` (stereo not shown) [Example 30, 6-(3-Hydroxybenzyl)-3-methyl-1-(1-(4-(trifluoromethyl)phenyl)ethyl)-1H-pyrazolo[3,4-d]pyrimidin-4(5H)-one], the Ki reads like this: under setting [2], 6.6 nM; under setting [1], 11 nM. For the compound `COc1ccc(Cc2nc3c(c(C)nn3C(C)c3ccc(C(F)(F)F)cc3)c(=O)[nH]2)cc1` (stereo not shown) [Example 46, 6-(4-Methoxybenzyl)-3-methyl-1-{1-[4-(trifluoromethyl)phenyl]ethyl}-1,5-dihydro-4H-pyrazolo[3,4-d]pyrimidin-4-one], the Ki under setting [2] is 7.1 nM. Consider `Cc1nc2c(c(CF)nn2C(c2ccc(C(F)(F)F)cc2)C(F)(F)F)c(=O)[nH]1` (stereo not shown) [Example 201, 3-(Fluoromethyl)-6-methyl-1-(2,2,2-trifluoro-1-(4-(trifluoromethyl)phenyl)-ethyl)-1H-pyrazolo[3,4-d]pyrimidin-4(5H)-one], for which the Ki runs as follows: under setting [2], 1.4 nM; under setting [1], 4.1 nM. On to `COc1ccc(Cc2nc3c(c(CF)nn3C(C)c3ccc(C(F)(F)F)cc3)c(=O)[nH]2)cc1OC` (single isomer, unassigned) [Example 222, (R)- or (S)-6-(3,4-Dimethoxybenzyl)-3-(fluoromethyl)-1-(1-(4-(trifluoromethyl)phenyl)ethyl)-1,5-dihydro-4H-pyrazolo[3,4-d]pyrimidin-4-one], for which the Ki runs as follows: under setting [2], 0.17 nM; under setting [1], around 0.28 nM. For `Cc1nc2c(c(C(C)O)nn2C(C)c2ccc(C(F)(F)F)cc2)c(=O)[nH]1` (stereo not shown) [Example 328, 3-(1-Hydroxyethyl)-6-methyl-1-{1-[4-(trifluoromethyl)phenyl]ethyl}-1,5-dihydro-4H-pyrazolo[3,4-d]pyrimidin-4-one], the Ki was 22 nM under setting [2] and 33 nM under setting [1]. Consider `Cc1nc2c(c(CF)nn2C(C)c2ccc(C(F)(F)F)cc2)c(=O)[nH]1` (stereo not shown) [Example 204, 3-(Fluoromethyl)-6-methyl-1-{1-[4-(trifluoromethyl)phenyl]ethyl}-1,5-dihydro-4H-pyrazolo[3,4-d]pyrimidin-4-one], for which, under setting [2], the inhibitory constant (Ki) amounted to 4 nM. With `Cc1nc2c(c(CO)nn2C(c2ccc(C(F)(F)F)cc2)C2CC2)c(=O)[nH]1` (stereo not shown) [Example 28, 1-(Cyclopropyl(4-(trifluoromethyl)phenyl)methyl)-3-(hydroxymethyl)-6-methyl-1H-pyrazolo[3,4-d]pyrimidin-4(5H)-one], the Ki turned out to be 0.75 nM under setting [2] and 2.2 nM under setting [1]. In the case of `Cc1nc2c(c(CF)nn2C(C)c2ccc(OC(F)(F)F)c(F)c2)c(=O)[nH]1` (single isomer, unassigned) [Example 217, (S)- or (R)-1-(1-(3-Fluoro-4-(trifluoromethoxy)phenyl)ethyl)-3-(fluoromethyl)-6-methyl-1H-pyrazolo[3,4-d]pyrimidin-4(5H)-one], the Ki by setting is: under setting [2], 0.39 nM; under setting [1], 0.53 nM. Consider `Cc1nc2c(c(C(O)C(F)(F)F)nn2C(C)c2ccc(C(F)(F)F)cc2)c(=O)[nH]1` (stereo not shown) [Example 327, 6-Methyl-3-(2,2,2-trifluoro-1-hydroxyethyl)-1-{1-[4-(trifluoromethyl)phenyl]ethyl}-1,5-dihydro-4H-pyrazolo[3,4-d]pyrimidin-4-one], for which the inhibitory constant (Ki) under setting [2] came out at 93 nM.

Take `COc1ccc(Cc2nc3c(c(CF)nn3C(C)c3ccc(C(F)(F)F)cc3)c(=O)[nH]2)cc1OC` (single isomer, unassigned) [Example 223, (S)- or (R)-6-(3,4-Dimethoxybenzyl)-3-(fluoromethyl)-1-(1-(4-(trifluoromethyl)phenyl)ethyl)-1,5-dihydro-4H-pyrazolo[3,4-d]pyrimidin-4-one]: under setting [2], the Ki was determined as 26 nM.

`Cc1nc2c(c(CO)nn2C(C)c2ccc(OC(F)(F)F)c(F)c2)c(=O)[nH]1` (single isomer, unassigned) [Example 11, (S)- or (R)-1-(1-(3-Fluoro-4-(trifluoromethoxy)phenyl)ethyl)-3-(hydroxymethyl)-6-methyl-1H-pyrazolo[3,4-d]pyrimidin-4(5H)-one]: the Ki runs as follows: under setting [2], 0.85 nM; under setting [1], 2 nM. `Cc1nc2c(c(CF)nn2C(C)c2ccc(C(C)(C)C)cc2)c(=O)[nH]1` (single isomer, unassigned) [Example 215, (S)- or (R)-1-(1-(4-tert-Butylphenyl)ethyl)-3-(fluoromethyl)-6-methyl-1H-pyrazolo[3,4-d]pyrimidin-4(5H)-one]: the Ki by setting is: under setting [2], 0.24 nM; under setting [1], 0.63 nM. On the same counts, the results for `Cc1nc2c(c(CF)nn2C(C)c2ccc(C(F)(F)F)c(F)c2)c(=O)[nH]1` (stereo not shown) [Example 230, 1-(1-(3-Fluoro-4-(trifluoromethyl)phenyl)ethyl)-3-(fluoromethyl)-6-methyl-1H-pyrazolo[3,4-d]pyrimidin-4(5H)-one] are 2.3 nM and 3.4 nM. For the compound `Cc1nc2c(c(CF)nn2C(c2ccc(C(F)(F)F)cc2)C2(C)CC2)c(=O)[nH]1` (single isomer, unassigned) [Example 209], the Ki under setting [1] worked out at 1 nM.

For `Cc1nc2c(c(CO)nn2C(C)c2ccc(OC(F)(F)F)cc2)c(=O)[nH]1` (stereo not shown) [Example 4], the Ki by setting is: under setting [2], 3.8 nM; under setting [1], 7.1 nM. For `COc1ccc(Cc2nc3c(c(C(F)F)nn3C(C)c3ccc(C(F)(F)F)cc3)c(=O)[nH]2)cc1OC` (single isomer, unassigned) [Example 196], under setting [1], the Ki is 28 nM.

In the case of `Cc1nc2c(c(CF)nn2C2(c3ccc(C(F)(F)F)cc3)CCC2)c(=O)[nH]1` [Example 202, 3-(Fluoromethyl)-6-methyl-1-(1-(4-(trifluoromethyl)phenyl)cyclobutyl)-1H-pyrazolo[3,4-d]pyrimidin-4(5H)-one], the Ki under setting [1] came to 3.1 nM. Turning to `Cc1nc2c(c(CF)nn2C(c2ccc(C(F)(F)F)cc2)C(C)C)c(=O)[nH]1` (single isomer, unassigned) [Example 213, (S)- or (R)-3-(Fluoromethyl)-6-methyl-1-(2-methyl-1-(4-(trifluoromethyl)phenyl)propyl)-1H-pyrazolo[3,4-d]pyrimidin-4(5H)-one], the Ki under setting [1] is 0.15 nM.
